Where a name gives a salt, the structure may show the parent alone.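 96-well plates; 48 h exposure; 5 concentrations. Endpoints by linear interpolation between flanking doses. Not reached: highest tested concentration assigned. GI50 = concentration required for 50% inhibition of growth.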 Activity calls are given as the source filed them. Rule as the data show it: active = GI50 up to about 1.1 µM and inactive = higher.
Tests used:
Assay in all cases: growth of human tumour cells (NCI), 48 h
HOP-92 = tested on: HOP-92
DMS-273 = tested on: DMS-273
M14 = tested on: M14
UACC-62 = tested on: UACC-62
HOP-62 = tested on: HOP-62
OVCAR-4 = tested on: OVCAR-4
SW-620 = tested on: SW-620
COLO 205 = tested on: COLO 205
SNB-19 = tested on: SNB-19
NCI-H226 = tested on: NCI-H226
RXF 393 = tested on: RXF 393
M19-MEL = tested on: M19-MEL
HL-60 = tested on: HL-60
SF-295 = tested on: SF-295
MOLT-4 = tested on: MOLT-4
HCC 2998 = tested on: HCC 2998
SN12C = tested on: SN12C
CAKI-1 = tested on: CAKI-1
786-0 = tested on: 786-0
SK-MEL-28 = tested on: SK-MEL-28
NCI-H522 = tested on: NCI-H522
DLD-1 = tested on: DLD-1
A549 = tested on: A549
RXF 631 = tested on: RXF 631
KM12 = tested on: KM12
HOP-18 = tested on: HOP-18
Malme-3M = tested on: Malme-3M
U-251 = tested on: U-251
NCI-H23 = tested on: NCI-H23
SF-268 = tested on: SF-268
LXFL 529 = tested on: LXFL 529
OVCAR-5 = tested on: OVCAR-5
EKVX = tested on: EKVX
RPMI-8226 = tested on: RPMI-8226
K562 = tested on: K562
HT-29 = tested on: HT-29
SNB-78 = tested on: SNB-78
SNB-75 = tested on: SNB-75
CCRF-CEM = tested on: CCRF-CEM
IGROV-1 = tested on: IGROV-1
OVCAR-8 = tested on: OVCAR-8
SF-539 = tested on: SF-539
ACHN = tested on: ACHN
HCT-15 = tested on: HCT-15
KM-20L2 = tested on: KM-20L2
DMS-114 = tested on: DMS-114
SK-OV-3 = tested on: SK-OV-3
NCI-H460 = tested on: NCI-H460
HCT-116 = tested on: HCT-116
XF498 = tested on: XF498
UO-31 = tested on: UO-31
OVCAR-3 = tested on: OVCAR-3
LOX IMVI = tested on: LOX IMVI
UACC-257 = tested on: UACC-257
A498 = tested on: A498
TK-10 = tested on: TK-10
SR = tested on: SR
SK-MEL-5 = tested on: SK-MEL-5
SK-MEL-2 = tested on: SK-MEL-2

SMILES: Cc1ccc(N(C(=O)CC(=O)NN)C(=O)c2ccccc2Cl)cc1
- GI50 (HOP-92): > 100 µM (inactive)
- GI50 (DMS-273): > 100 µM (inactive)
- GI50 (M14): > 100 µM (inactive)
- GI50 (UACC-62): > 100 µM (inactive)
- GI50 (HOP-62): > 100 µM (inactive)
- GI50 (OVCAR-4): > 100 µM (inactive)
- GI50 (SW-620): > 100 µM (inactive)
- GI50 (COLO 205): > 100 µM (inactive)
- GI50 (SNB-19): > 100 µM (inactive)
- GI50 (NCI-H226): > 100 µM (inactive)
- GI50 (RXF 393): > 100 µM (inactive)
- GI50 (M19-MEL): > 100 µM (inactive)
- GI50 (HL-60): > 100 µM (inactive)
- GI50 (SF-295): > 100 µM (inactive)
- GI50 (MOLT-4): > 100 µM (inactive)
- GI50 (HCC 2998): > 100 µM (inactive)
- GI50 (SN12C): > 100 µM (inactive)
- GI50 (CAKI-1): > 100 µM (inactive)
- GI50 (786-0): > 100 µM (inactive)
- GI50 (SK-MEL-28): > 100 µM (inactive)
- GI50 (NCI-H522): > 100 µM (inactive)
- GI50 (DLD-1): > 100 µM (inactive)
- GI50 (A549): > 100 µM (inactive)
- GI50 (RXF 631): > 100 µM (inactive)
- GI50 (KM12): > 100 µM (inactive)
- GI50 (HOP-18): > 100 µM (inactive)
- GI50 (Malme-3M): > 100 µM (inactive)
- GI50 (U-251): > 100 µM (inactive)
- GI50 (NCI-H23): > 100 µM (inactive)
- GI50 (SF-268): > 100 µM (inactive)
- GI50 (LXFL 529): > 100 µM (inactive)
- GI50 (OVCAR-5): > 100 µM (inactive)
- GI50 (EKVX): > 100 µM (inactive)
- GI50 (RPMI-8226): > 100 µM (inactive)
- GI50 (K562): > 100 µM (inactive)
- GI50 (HT-29): > 100 µM (inactive)
- GI50 (SNB-78): > 100 µM (inactive)
- GI50 (SNB-75): > 100 µM (inactive)
- GI50 (CCRF-CEM): > 100 µM (inactive)
- GI50 (IGROV-1): > 100 µM (inactive)
- GI50 (OVCAR-8): > 100 µM (inactive)
- GI50 (SF-539): > 100 µM (inactive)
- GI50 (ACHN): > 100 µM (inactive)
- GI50 (HCT-15): > 100 µM
- GI50 (KM-20L2): > 100 µM (inactive)
- GI50 (DMS-114): > 100 µM (inactive)
- GI50 (SK-OV-3): > 100 µM (inactive)
- GI50 (NCI-H460): > 100 µM (inactive)
- GI50 (HCT-116): > 100 µM (inactive)
- GI50 (XF498): > 100 µM (inactive)
- GI50 (UO-31): > 100 µM (inactive)
- GI50 (OVCAR-3): > 100 µM (inactive)
- GI50 (LOX IMVI): > 100 µM (inactive)
- GI50 (UACC-257): > 100 µM (inactive)
- GI50 (A498): > 100 µM (inactive)

SMILES: COC(=O)C(Cc1nc2ccc(Cl)cc2nc1O)C(=O)C(=O)Nc1ccccc1[N+](=O)[O-] (stereo not given)
- GI50 (DMS-273): > 100 µM (inactive)
- GI50 (M14): > 100 µM (inactive)
- GI50 (UACC-62): > 100 µM (inactive)
- GI50 (HOP-62): > 100 µM (inactive)
- GI50 (OVCAR-4): > 100 µM (inactive)
- GI50 (SW-620): > 100 µM (inactive)
- GI50 (COLO 205): > 100 µM (inactive)
- GI50 (SNB-19): > 100 µM (inactive)
- GI50 (NCI-H226): > 100 µM (inactive)
- GI50 (RXF 393): > 100 µM (inactive)
- GI50 (M19-MEL): > 100 µM (inactive)
- GI50 (TK-10): > 100 µM (inactive)
- GI50 (HL-60): > 100 µM (inactive)
- GI50 (SF-295): > 100 µM (inactive)
- GI50 (MOLT-4): > 100 µM (inactive)
- GI50 (SR): > 100 µM (inactive)
- GI50 (HCC 2998): > 100 µM (inactive)
- GI50 (SK-MEL-5): > 100 µM (inactive)
- GI50 (SN12C): > 100 µM (inactive)
- GI50 (CAKI-1): > 100 µM (inactive)
- GI50 (786-0): > 100 µM (inactive)
- GI50 (SK-MEL-28): > 100 µM (inactive)
- GI50 (NCI-H522): > 100 µM (inactive)
- GI50 (DLD-1): > 100 µM (inactive)
- GI50 (SK-MEL-2): > 100 µM (inactive)
- GI50 (A549): > 100 µM (inactive)
- GI50 (RXF 631): > 100 µM (inactive)
- GI50 (KM12): > 100 µM (inactive)
- GI50 (HOP-18): 93.8 µM (inactive)
- GI50 (Malme-3M): > 100 µM (inactive)
- GI50 (U-251): > 100 µM (inactive)
- GI50 (NCI-H23): > 100 µM (inactive)
- GI50 (SF-268): > 100 µM (inactive)
- GI50 (LXFL 529): > 100 µM (inactive)
- GI50 (OVCAR-5): > 100 µM (inactive)
- GI50 (EKVX): 7.8 µM (inactive)
- GI50 (RPMI-8226): > 100 µM (inactive)
- GI50 (K562): > 100 µM (inactive)
- GI50 (HT-29): > 100 µM (inactive)
- GI50 (SNB-78): > 100 µM (inactive)
- GI50 (SNB-75): > 100 µM (inactive)
- GI50 (CCRF-CEM): > 100 µM (inactive)
- GI50 (IGROV-1): > 100 µM (inactive)
- GI50 (OVCAR-8): > 100 µM (inactive)
- GI50 (SF-539): > 100 µM (inactive)
- GI50 (ACHN): > 100 µM (inactive)
- GI50 (HCT-15): > 100 µM
- GI50 (KM-20L2): > 100 µM (inactive)
- GI50 (DMS-114): > 100 µM (inactive)
- GI50 (SK-OV-3): > 100 µM (inactive)
- GI50 (NCI-H460): > 100 µM (inactive)
- GI50 (HCT-116): > 100 µM (inactive)
- GI50 (XF498): > 100 µM (inactive)
- GI50 (UO-31): > 100 µM (inactive)
- GI50 (OVCAR-3): > 100 µM (inactive)
- GI50 (LOX IMVI): > 100 µM (inactive)
- GI50 (UACC-257): > 100 µM (inactive)
- GI50 (A498): > 100 µM (inactive)

SMILES: CNC(C)Cc1ccccc1OC (stereo not given) [METHOXYPHENAMINE HYDROCHLORIDE]
- GI50 (HOP-92): > 100 µM (inactive)
- GI50 (DMS-273): > 100 µM (inactive)
- GI50 (M14): > 100 µM (inactive)
- GI50 (UACC-62): > 100 µM (inactive)
- GI50 (HOP-62): > 100 µM (inactive)
- GI50 (OVCAR-4): > 100 µM (inactive)
- GI50 (SW-620): > 100 µM (inactive)
- GI50 (COLO 205): > 100 µM (inactive)
- GI50 (SNB-19): > 100 µM (inactive)
- GI50 (NCI-H226): > 100 µM (inactive)
- GI50 (RXF 393): > 100 µM (inactive)
- GI50 (TK-10): > 100 µM (inactive)
- GI50 (HL-60): > 100 µM (inactive)
- GI50 (SF-295): > 100 µM (inactive)
- GI50 (MOLT-4): > 100 µM (inactive)
- GI50 (HCC 2998): > 100 µM (inactive)
- GI50 (SK-MEL-5): > 100 µM (inactive)
- GI50 (SN12C): > 100 µM (inactive)
- GI50 (CAKI-1): > 100 µM (inactive)
- GI50 (786-0): > 100 µM (inactive)
- GI50 (SK-MEL-28): > 100 µM (inactive)
- GI50 (NCI-H522): > 100 µM (inactive)
- GI50 (DLD-1): > 100 µM (inactive)
- GI50 (SK-MEL-2): > 100 µM (inactive)
- GI50 (A549): > 100 µM (inactive)
- GI50 (RXF 631): > 100 µM (inactive)
- GI50 (KM12): > 100 µM (inactive)
- GI50 (HOP-18): > 100 µM (inactive)
- GI50 (Malme-3M): > 100 µM (inactive)
- GI50 (U-251): > 100 µM (inactive)
- GI50 (NCI-H23): > 100 µM (inactive)
- GI50 (SF-268): > 100 µM (inactive)
- GI50 (LXFL 529): > 100 µM (inactive)
- GI50 (OVCAR-5): > 100 µM (inactive)
- GI50 (EKVX): > 100 µM (inactive)
- GI50 (RPMI-8226): > 100 µM (inactive)
- GI50 (K562): > 100 µM (inactive)
- GI50 (HT-29): > 100 µM (inactive)
- GI50 (SNB-78): > 100 µM (inactive)
- GI50 (SNB-75): > 100 µM (inactive)
- GI50 (CCRF-CEM): > 100 µM (inactive)
- GI50 (IGROV-1): > 100 µM (inactive)
- GI50 (OVCAR-8): > 100 µM (inactive)
- GI50 (SF-539): > 100 µM (inactive)
- GI50 (ACHN): > 100 µM (inactive)
- GI50 (HCT-15): > 100 µM
- GI50 (KM-20L2): > 100 µM (inactive)
- GI50 (DMS-114): > 100 µM (inactive)
- GI50 (SK-OV-3): > 100 µM (inactive)
- GI50 (NCI-H460): > 100 µM (inactive)
- GI50 (HCT-116): > 100 µM (inactive)
- GI50 (XF498): > 100 µM (inactive)
- GI50 (UO-31): > 100 µM (inactive)
- GI50 (OVCAR-3): > 100 µM (inactive)
- GI50 (LOX IMVI): > 100 µM (inactive)
- GI50 (UACC-257): > 100 µM (inactive)
- GI50 (A498): > 100 µM (inactive)

— ChEMBL document CHEMBL1201862, “PubChem BioAssay data set” (2004)
